Entries after “also recorded” stand apart in the source; their conditions may differ. Square brackets hold non-standard residues; d marks the D form. Ends that are not written are not given here. Peptide text beside a SMILES is read from it. Abu = CC[C@H](N)C(=O)O
Columns and labels:
HUVEC [1] = experiment: HUVEC tube formation assay on Matrigel; assay type: cell-based, human; details: for Tube formation Inhibition (100 uM): 100 uM peptide; for Activity in Tube formation: Yes/No summary; for inhibition of tube formation (FIG. 20): high dose, 100 nM; for inhibition of tube formation: concentration not given
Description: The compounds also were tested for their ability to inhibit tube formation, a process critical in angiogenesis. Endothelial cells spontaneously form a network of tubes when plated on extracts of extracellular matrix. This in vitro assay combines aspects of adhesion and migration and it is routinely used in angiogenesis research (Oliveira-Ferrer et al., 2008). The ability to inhibit tube formation is a comprehensive assessment of the anti-angiogenic potential. The protocol was described by Arnaoutova et al. (2009) and it consists of plating HUVEC on top of basement membrane extract and after incubation at 37° C. the cells naturally rearrange themselves in a network of tubes. Thus, 50 μL/well of Matrigel (BD Biosciences, San Jose, Calif.) was plated in a cold 96 well plate and incubated at 37° C. for 30 min for polymerization. 15,000 cells/well were added to the top of the gel and incubated in complete media in the presence or absence of peptide for 19 hours. Images were captured using the CCD Sensicam mounted on a Nikon microscope (Eclipse T-100). Assays were performed in at least two independent replicates and each replicate was performed using three experimental replicates and one image of a randomly chosen field was acquired per well.

HUVEC [2] = experiment: HUVEC migration assay (RT-CIM); assay type: cell-based, human; details: for Migration Inhibition (50 uM): 50 uM peptide; for Activity in Migration: Yes/No summary, active = inhibitory potential greater than 30%; for inhibition of migration: concentration not given; for Migration Inhibition (5 uM): 5 uM peptide
Description: The inhibitory potential of the peptides was measured using a real time migration assay system based on electrical impedance (RT-CIM, ACEA Biosciences, CA). CIM 16 well plates (Roche, 05665817001) are composed of a top and bottom chamber separated by a microporous (8 μm) polycarbonate membrane. The membrane was coated with fibronectin (20 μg/mL), and 45,000 cells/well in serum free media with or without peptides were added to the top compartment. Media with chemoattractant (i.e., fully supplemented EBM-2) was added to the bottom compartment of the chamber and the plate was incubated at 37° C. for 20 hours. The sensors integrated on the bottom side of the membrane monitor and continuously record changes in impedance as the cells move through the membrane. The RT-CIM technology allows for easy quantification of cell migration by monitoring the cell index derived from the measured impedances. Assays were performed in at least two independent replicates and each replicate was performed using two experimental duplicates.

HUVEC [3] = assay type: cell-based, human; details: for Activity in Proliferation: Yes/No summary
Description: Several assays were used to test the peptides discussed in the Examples herein. A colorimetric based proliferation assay using WST-1 (Roche, 11644807001) proliferation reagent was carried out using HUVEC cells. 2000 cells/well were plated in 96-well plates and allowed to adhere overnight. On the following day, the media was exchanged with fully supplemented media containing peptides or equivalent DMSO vehicle for the controls. Three days later the media containing the peptides was replaced with serum-free EBM-2 media containing WST-1 reagent and the plates were incubated for four hours as per the manufacturer's recommendations. Changes in color, due to the formazan dye resulted from the cleavage of the tetrazolium salt WST-1 by the mitochondrial succinate-tetrazolium reductase, were read on a Victor V fluorescence plate reader (Perkin Elmer, MA) by measuring the absorbance at 450 nm Dose response curves of percent live cells (in comparison to untreated cells but incubated in complete media with 0.2% DMSO) were created. Assays were performed in at least two independent replicates and each replicate was performed using three experimental triplicates.

HUVEC [4] = assay type: cell-based, human; details: HUVEC; for Adhesion Inhibition (100 uM): 100 uM peptide; for Activity in Adhesion: Yes/No summary, active = inhibitory potential greater than 30%
Description: Similar to the migration assays, the inhibition activity of the peptide in cellular adhesion was assessed using the RT-CIM technology. In this case, 25,000 cells/well were plated in 16 wells E-plates (Roche, Basel Switzerland) in the presence or absence of the peptide. The adhesion was monitored over time (3 hours) by measuring changes in the electrical impedance, which is a direct measure of the cells adhering on the electrodes. […] Assays were performed in at least two independent replicates and each replicate was performed using two experimental duplicates.

MDA-MB-231 xenograft = experiment: MDA-MB-231 orthotopic breast tumor xenograft; assay type: in vivo, SCID mice; details: for MDA-MB-231 xenograft inhibition: mice
Description: For primary tumor inhibition studies, 1−2×10^6 tumor cells were injected into 4-6 wk old female SCID mice. After the tumors reached a size of 100 mm^3 the animals were randomized into groups of 10 animals each. The animals were treated with vehicle, SP2012, SP2000, or SP2024. The peptides were administered subcutaneously daily. Dosing was continued for 3 or 4 weeks and tumor sizes were measured every 3 days using calipers. The tumor volume was estimated using the formula V=a^2b/2 where a and b are the smaller and larger diameters.
For the tumor xenograft assay, animals were housed and treated according to the approved animal protocol of the Institutional Care and Use Committee at Johns Hopkins Medical Institution (JHMI). Orthotopic breast tumors were initiated in SCID mice using MDA-MB-231 cells. 2×10^6 cells per 100 μL aliquot of single cell suspension were injected in the breast mannary fat pad. Tumors reached volumes of 75 mm^3 to 100 mm^3 in approximately 14-21 days. Mice were randomized and arranged in groups (8 mice per group) with similar tumor volumes (no statistical difference among averages) and treatment was commenced. Peptides were administered once per day intraperitoneally (i.p.) at doses of 10 mg/kg (subcutaneous delivery was also tested with certain peptides). Paclitaxel was administered at 5 mg/kg once a week, and to maintain the daily treatment regime PBS was administered on the non-treatment days. Tumors were measured every fourth day using calipers and the tumor volume was calculated using the formula V=ab^2/2, where a is the larger diameter and b is the smaller diameter.

| Molecule | Tube formation Inhibition (100 uM) (HUVEC [1]) | Migration Inhibition (50 uM) (HUVEC [2]) | IC50 (HUVEC [3]) [µM] | Adhesion Inhibition (100 uM) (HUVEC [4]) [%] | suppression of tumor growth (MDA-MB-231 xenograft; MDA-MB-231 xenograft in mice, 10 mg/kg daily) | microvascular density (MDA-MB-231 xenograft; after completion of the treatment at 21 days) | MDA-MB-231 xenograft inhibition (MDA-MB-231 xenograft) | Activity in Tube formation (HUVEC [1]) | inhibition of tube formation (FIG. 20) (HUVEC [1]) | Activity in Migration (HUVEC [2]) | inhibition of migration (HUVEC [2]) | Activity in Proliferation (HUVEC [3]; HUVEC) | Activity in Adhesion (HUVEC [4]) | inhibition of proliferation (HUVEC [3]; HUVEC) | inhibition of tube formation (HUVEC [1]) | Migration Inhibition (5 uM) (HUVEC [2]) [%] | Proliferation Inhibition (IC50 in uM) (HUVEC [3]; HUVEC, summary tables 2-4, 6, 7) |
| --- | --- | --- | --- | --- | --- | --- | --- | --- | --- | --- | --- | --- | --- | --- | --- | --- | --- |
| CC[C@H](C)[C@H](NC(=O)[C@H](CC(N)=O)NC(=O)[C@H](CS)NC(=O)[C@H](Cc1ccccc1)NC(=O)[C@H](CCSC)NC(=O)[C@H](Cc1ccccc1)NC(=O)[C@@H]1CCCN1C(=O)[C@H](CCSC)NC(=O)[C@@H](NC(=O)[C@H](CO)NC(=O)[C@H](Cc1ccccc1)NC(=O)[C@H](CCCNC(=N)N)NC(=O)[C@H](CCCNC(=N)N)NC(=O)[C@@H](N)CC(C)C)[C@@H](C)O)C(=O)N[C@@H](CC(N)=O)C(=O)N[C@@H](CC(N)=O)C(=O)N[C@H](C(=O)N[C@@H](CS)C(=O)N[C@@H](CC(N)=O)C(=O)N[C@@H](Cc1ccccc1)C(N)=O)C(C)C [SP2000, reference compound] (H-LRRFSTMPFMFCNINNVCNF-NH2; N-terminus assumed) | Complete | 80% | 15.5 | 95 | tumor growth was inhibited | statistically different from one another | Active |  |  |  |  |  |  |  |  |  |  |
| CC[C@H](NC(=O)[C@H](Cc1ccccc1)NC(=O)[C@H](CCSC)NC(=O)[C@H](Cc1ccccc1)NC(=O)[C@@H]1CCCN1C(=O)[C@H](CCSC)NC(=O)[C@@H](NC(=O)[C@@H](N)CO)[C@@H](C)O)C(=O)N[C@@H](CC(N)=O)C(=O)N[C@H](C(=O)N[C@@H](CC(N)=O)C(=O)N[C@@H](CC(N)=O)C(=O)N[C@H](C(=O)N[C@@H](CC)C(=O)N[C@@H](CC(N)=O)C(=O)N[C@@H](Cc1ccccc1)C(=O)O)C(C)C)[C@@H](C)CC [SP2011, STMPFMFAbuNINNVAbuNF-OH] (H-STMPFMF[Abu]NINNV[Abu]NF-OH; N-terminus assumed) | Partial | Inactive | 51.4 | 0 |  |  | Active | No | no activity in tube formation | No | inactive in the migration assay | No | Yes |  |  |  |  |
| LRRFSTMPFMFSNINNVSNF-NH2 [SP2022] |  |  |  | 96.49 |  |  |  | Yes |  | Yes |  | Yes | Yes | not affected |  |  |  |
| LRRFSTMPFMFTNINN-NH2 [SP2032, LRRFSTMPFMFTNINN] | Complete | 32.45% |  | 63 |  |  |  | Yes |  | Yes |  | Yes | Yes | potent activity in inhibiting proliferation | Inhibition of tube formation |  |  |
| LRRFSTMPFMFTNINNVTNF-NH2 [SP2025] | Complete |  |  | 96.48 |  |  |  | Yes |  | Yes |  | Yes | Yes | not affected |  | 18.19 |  |
| LRRFSTMPFMFTNINV-NH2 [SP2029, LRRFSTMPFMFTNINV] | Complete | 54.13% |  | 93.75 |  |  |  | Yes |  | Yes |  | Yes | Yes | potent activity in inhibiting proliferation | Inhibition of tube formation |  |  |
| LRRFSTMPFMFVNINNVVNF-NH2 [SP2027] | Complete |  |  | 96.75 |  |  |  | Yes |  | Yes |  | Yes | Yes | not affected |  | 27.02 |  |
| NINNVAbuNF (NINNVXNF; Abu non-natural residue; Artificial sequence based on the human Collagen Type IV protein) [SP2009] | Partial | 55% |  | 0 |  |  |  | Yes | displayed activity in inhibiting tube formation | Yes | inhibitory activity; also recorded: active in migration | No | No |  |  |  | Inactive |

From patent publication US9056923B2, “Mimetic peptides derived from collagen type IV and their use for treating angiogenesis- and lymphagiogenesis-dependent diseases” (THE JOHNS HOPKINS UNIVERSITY, priority 2010, dated 2015)
